ChEMBL document CHEMBL1201862, “PubChem BioAssay data set” (2004)
Several values for one entry are separate records, joined by “and”; a condition that tells them apart may be missing. Equal values may be shown once.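 Tested at 5 concentrations; 48 h exposure; 96-well plates; endpoints linearly interpolated, else capped at highest concentration. GI50: concentration for 50% inhibition of growth.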 Activity calls are given as the source filed them. Cut-off read from the data, not from the text of the source: active = GI50 up to about 1.1 µM and inactive = higher.

Experiments:
Experiment in all cases: NCI tumour cell line growth inhibition, 48 h
NCI/ADR-RES = system: NCI/ADR-RES
K562 = system: K562
OVCAR-4 = system: OVCAR-4
MDA-MB-435 = system: MDA-MB-435
COLO 205 = system: COLO 205
HCT-15 = system: HCT-15
HL-60 = system: HL-60
KM12 = system: KM12
SW-620 = system: SW-620
T47D = system: T47D
M14 = system: M14
ACHN = system: ACHN
UACC-62 = system: UACC-62
CCRF-CEM = system: CCRF-CEM
SF-295 = system: SF-295
SF-539 = system: SF-539
HT-29 = system: HT-29
NCI-H522 = system: NCI-H522
NCI-H226 = system: NCI-H226
OVCAR-5 = system: OVCAR-5
UACC-257 = system: UACC-257
HCT-116 = system: HCT-116
EKVX = system: EKVX
U-251 = system: U-251
OVCAR-8 = system: OVCAR-8
RPMI-8226 = system: RPMI-8226
IGROV-1 = system: IGROV-1
RXF 393 = system: RXF 393
SK-MEL-2 = system: SK-MEL-2
DU-145 = system: DU-145
LOX IMVI = system: LOX IMVI
A549 = system: A549
SNB-19 = system: SNB-19
MDA-MB-231 = system: MDA-MB-231
NCI-H23 = system: NCI-H23
HOP-62 = system: HOP-62
MOLT-4 = system: MOLT-4
SK-MEL-28 = system: SK-MEL-28
A498 = system: A498
MDA-N = system: MDA-N
HCC 2998 = system: HCC 2998
CAKI-1 = system: CAKI-1
SN12C = system: SN12C
786-0 = system: 786-0
OVCAR-3 = system: OVCAR-3
PC-3 = system: PC-3
SNB-75 = system: SNB-75
SK-MEL-5 = system: SK-MEL-5
HOP-92 = system: HOP-92
Malme-3M = system: Malme-3M
SK-OV-3 = system: SK-OV-3
TK-10 = system: TK-10
UO-31 = system: UO-31
MCF7 = system: MCF7
SF-268 = system: SF-268
Hs-578T = system: Hs-578T
SR = system: SR
NCI-H460 = system: NCI-H460

Measured: GI50

[O-][N+]1=C(c2ccccc2)/C(=C2/C(c3ccccc3)=[N+]([O-])c3ccccc32)Cc2ccccc21
16.9 µM: HCT-15
inactive: NCI/ADR-RES 15.7 µM | K562 19.1 µM | OVCAR-4 13.8 µM | MDA-MB-435 20.2 µM | COLO 205 17.3 µM | HL-60 40.1 µM | KM12 18.7 µM | SW-620 22.4 µM | T47D 16.3 µM | M14 19.6 µM | ACHN 20.9 µM | UACC-62 14.1 µM | CCRF-CEM 13.1 µM | SF-295 15.3 µM | SF-539 24.2 µM | HT-29 19.4 µM | NCI-H522 15.3 µM | NCI-H226 22.5 µM | OVCAR-5 33.6 µM | UACC-257 18.3 µM | HCT-116 17.1 µM | EKVX 20.4 µM | U-251 14.5 µM | OVCAR-8 16.6 µM | RPMI-8226 21.1 µM | IGROV-1 16.4 µM | RXF 393 33.1 µM | SK-MEL-2 16.1 µM | DU-145 22 µM | LOX IMVI 16.7 µM | A549 13.8 µM | SNB-19 19 µM | MDA-MB-231 13.6 µM | NCI-H23 15.5 µM | HOP-62 32.4 µM | MOLT-4 22.8 µM | SK-MEL-28 22.3 µM | A498 5.52 µM | MDA-N 17.1 µM | HCC 2998 13.9 µM | CAKI-1 22 µM | SN12C 16.6 µM | 786-0 15.3 µM | OVCAR-3 16.8 µM | PC-3 12.9 µM | SNB-75 15.5 µM | SK-MEL-5 17.6 µM | HOP-92 15.2 µM | Malme-3M 21.3 µM | SK-OV-3 26.4 µM | TK-10 18.2 µM | UO-31 14.5 µM | MCF7 43.4 µM

C=C[C@H]1CC[C@H]2[C@@H]3CC=C4C[C@@H](OC5OCC(O)C(O)C5O)CC[C@]4(C)[C@H]3CC[C@]12C (some centres undefined)
inactive: NCI/ADR-RES 15.9 µM | K562 25.8 µM | MDA-MB-435 15.9 µM | COLO 205 21.7 µM | HL-60 29.7 µM | KM12 12.9 µM | SW-620 17.7 µM | T47D 14.3 µM | M14 16.1 µM | ACHN 2.83 µM | UACC-62 15.5 µM | CCRF-CEM 24.8 µM | SF-295 15.2 µM | SF-539 14.9 µM | HT-29 24.4 µM | SF-268 13.8 µM | NCI-H522 11.4 µM | NCI-H226 15.5 µM | OVCAR-5 11.7 µM | UACC-257 82.8 µM | HCT-116 13.7 µM | Hs-578T 17.1 µM | U-251 14.9 µM | OVCAR-8 16.3 µM | RPMI-8226 81.7 µM | IGROV-1 10 µM | SK-MEL-2 16.6 µM | DU-145 34.1 µM | LOX IMVI 10.8 µM | A549 12.9 µM | SNB-19 25.7 µM | MDA-MB-231 11.4 µM | NCI-H23 26.1 µM | HOP-62 18 µM | MOLT-4 46.6 µM | A498 4.22 µM | MDA-N 17.6 µM | CAKI-1 6.62 µM | SN12C 15.7 µM | SR 14.7 µM | 786-0 15.3 µM | OVCAR-3 11.9 µM | PC-3 14.3 µM | NCI-H460 13.1 µM | SK-MEL-5 18.2 µM | HOP-92 1.97 µM | SK-OV-3 12.9 µM | UO-31 13.3 µM | MCF7 36.8 µM
25.5 µM: HCT-15

CC(C)(C)OC(=O)C1C(=O)NC(=O)CC1C(OCc1ccccc1)C(OCc1ccccc1)C(COCc1ccccc1)OCc1ccccc1 (centres undefined)
> 100 µM: HCT-15
inactive: NCI/ADR-RES > 100 µM and 58.6 µM | K562 65.8 µM and 88.3 µM | OVCAR-4 50.6 µM | COLO 205 58.2 µM | SW-620 > 100 µM | T47D 2.14 µM | M14 > 100 µM and 71.8 µM | ACHN > 75 µM | SF-295 50.6 µM | SF-539 > 100 µM | HT-29 16.6 µM | SF-268 74 µM and 71.4 µM | NCI-H226 > 100 µM and 61.9 µM | OVCAR-5 > 100 µM | UACC-257 > 100 µM and 58.7 µM | EKVX > 100 µM | OVCAR-8 > 100 µM and 52.5 µM | IGROV-1 > 100 µM | DU-145 > 75 µM | SNB-19 > 100 µM | NCI-H23 > 100 µM | SK-MEL-28 > 100 µM | A498 > 75 µM | MDA-N > 100 µM | HCC 2998 > 100 µM | SN12C > 100 µM | 786-0 > 100 µM | PC-3 > 100 µM and 69.2 µM | TK-10 > 100 µM
